How the values were obtained:
GST-Bfl-1 = target: T1, GST-Bfl-1 (Homo sapiens, UniProt Q16548); experiment: FITC-TR3-9-r8 direct binding fluorescence polarization assay, Bfl-1; conditions: FIG. 2B; result in words
T1 construct: lacking their C-terminal transmembrane domains (about the last 20 amino acids) (“ΔTM”); made in house; host or cells: XL-1 Blue E. coli, pGEX 4T-1
T1 sequence (Q16548 1-155 limits assumed): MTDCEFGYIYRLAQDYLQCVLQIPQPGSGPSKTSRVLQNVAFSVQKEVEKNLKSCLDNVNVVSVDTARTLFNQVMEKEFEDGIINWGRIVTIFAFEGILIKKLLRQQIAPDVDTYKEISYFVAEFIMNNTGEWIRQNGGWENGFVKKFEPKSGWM

GST-Bcl-XL = target: T2, GST-Bcl-XL (Homo sapiens, UniProt Q07817); experiment: FITC-TR3-9-r8 direct binding fluorescence polarization assay, Bcl-XL; conditions: FIG. 2A; result in words
T2 construct: lacking their C-terminal transmembrane domains (about the last 20 amino acids) (“ΔTM”); made in house; host or cells: XL-1 Blue E. coli, pGEX 4T-1
T2 sequence (Q07817 1-212 limits assumed): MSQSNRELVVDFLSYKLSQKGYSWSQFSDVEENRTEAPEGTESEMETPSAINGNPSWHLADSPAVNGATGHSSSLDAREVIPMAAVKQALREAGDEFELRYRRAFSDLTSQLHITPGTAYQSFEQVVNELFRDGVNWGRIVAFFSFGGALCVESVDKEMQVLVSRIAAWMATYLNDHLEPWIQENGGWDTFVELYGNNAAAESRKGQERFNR

GST-Bcl-W = target: T3, GST-Bcl-W (Homo sapiens, UniProt Q92843); experiment: FITC-TR3-9-r8 direct binding fluorescence polarization assay, Bcl-W; conditions: FIG. 2B; result in words
T3 construct: GST-fusion proteins containing ΔTM versions of Bcl-2, Bcl-XL, Bfl-1, Mcl-1, Bcl-W, and Bcl-B; made in house
T3 sequence (Q92843 1-173 limits assumed): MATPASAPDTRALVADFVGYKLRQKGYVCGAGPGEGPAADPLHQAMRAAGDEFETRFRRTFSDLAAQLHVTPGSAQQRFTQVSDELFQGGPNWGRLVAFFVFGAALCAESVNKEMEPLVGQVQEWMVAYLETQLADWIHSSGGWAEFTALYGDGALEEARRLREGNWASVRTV

GST-Bcl-B = target: T4, GST-Bcl-B (Homo sapiens, UniProt Q9HD36); experiment: FITC-TR3-r8 direct binding fluorescence polarization assay, Bcl-B; parameters: their C-terminal transmembrane domains (˜20 amino acids) were deleted to enhance protein solubility; made in house; host or cells: E. coli (BL21 Star (DE3); XL-1 Blue), pGEX-4T-1; conditions: FIG. 2A; result in words
T4 sequence (Q9HD36 1-182 limits assumed): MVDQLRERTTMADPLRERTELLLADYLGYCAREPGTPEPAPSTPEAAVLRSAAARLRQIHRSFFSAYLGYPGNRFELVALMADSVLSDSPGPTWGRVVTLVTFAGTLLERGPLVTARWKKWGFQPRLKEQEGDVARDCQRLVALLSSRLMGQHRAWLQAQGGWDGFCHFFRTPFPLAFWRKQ

GST-Bcl-2 = GST-Bcl-2 (Homo sapiens, UniProt P10415); experiment: FITC-TR3-9-r8 direct binding fluorescence polarization assay, Bcl-2; parameters: their C-terminal transmembrane domains (˜20 amino acids) were deleted to enhance protein solubility; made in house; host or cells: E. coli (BL21 Star (DE3); XL-1 Blue), pGEX-4T-1; conditions: FIG. 2A; result in words
Sequence of GST-Bcl-2 (P10415 1-218 limits assumed): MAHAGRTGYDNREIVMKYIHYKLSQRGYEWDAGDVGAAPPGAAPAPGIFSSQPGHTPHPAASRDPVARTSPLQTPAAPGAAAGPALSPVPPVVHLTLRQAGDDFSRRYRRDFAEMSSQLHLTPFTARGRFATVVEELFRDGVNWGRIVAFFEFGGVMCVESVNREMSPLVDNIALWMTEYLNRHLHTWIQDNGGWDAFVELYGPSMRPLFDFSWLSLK

[1] = system: HeLa Tet-On-Bcl-B (HTO2) cells; experiment: Cell viability (ATPlite) in HeLa Tet-On-Bcl-B cells with or without doxycycline; format: cell-based; conditions: result in words
Method: (§1) FIG. 24A is a photograph of a blot wherein HeLa Tet-On (HTO1) and HeLa Tet-On-Bcl-B (HTO2) cells were treated with or without doxycycline (dox) for 24 h to induce their tetracycline-responsive promoters. Protein lysates were collected, and immunoblotting was used to analyze Bcl-B and Hsc70 (for loading control) expression. In FIG. 24B the cells were treated with or without doxycycline for 24 h, and then with staurosporine at the indicated concentrations for 24 h. Cell viability was measured using ATPlite. In FIG. 24C HeLa Tet-On-Bcl-B (HTO2) cells were treated with or without doxacycline as above. Compounds were then added at the indicated concentrations, and cell viability was measured 24 h later using ATPlite. The data shown represent mean±standard deviation (n=3).
HeLa Tet-On-Bcl-B cells were generated by stably transfecting the HeLa Tet-On cell line (Clontech, Mountain View, Calif.) with a pTRE2hyg vector (Clontech) containing the Bcl-B gene, using lipofectAMINE PLUS (Invitrogen, Carlsbad, Calif.). Briefly, cells were seeded overnight and transfected at 50% confluency for 3 h. After 24 h, the cells were re-seeded at <10% confluence and cultured in media (DMEM with 10% Tet System Approved FBS (Clontech)) containing G418 (100 μg/mL) and hygromycin B (300 μg/mL) for pTet-On and pTRE2hyg/Bcl-B plasmid maintenance, respectively. Positive foci resistant to both antibiotics were expanded. Colonies were then cultured in the presence or absence of doxycycline (Clontech, 1 μg/mL) for 16 h, and induced Bcl-B expression was confirmed by Western blot analysis. A previously developed polyclonal Bcl-B antibody^17 and an Hsc70 antibody (for protein concentration comparison; Santa Cruz Biotechnology, Santa Cruz, Calif.) were used.
(§2) Cells were seeded in 96-well plates at 5,000 cells/well in 100 μL of growth medium and allowed to incubate for 24 h. Afterwards, cells were incubated in the presence or absence of doxycycline (1 μg/mL) for another 24 h (to induce Bcl-B expression). Compounds were then added, as indicated, in a volume of 5 μL. The next day, cell viability was measured using the ATPlite Luminescence ATP Detection System (PerkinElmer, Waltham, Mass.) according to the manufacturer's specifications.

HeLa Tet-On (HTO1) cells = experiment: Cell viability (ATPlite) in control HeLa Tet-On cells; format: cell-based; conditions: cells do not express Bcl-B; result in words
Method: as §1, §2

Structure (SMILES) | binding to GST-Bfl-1 (GST-Bfl-1) | binding to GST-Bcl-XL (GST-Bcl-XL) | binding to GST-Bcl-W (GST-Bcl-W) | binding to GST-Bcl-B (GST-Bcl-B) | binding to GST-Bcl-2 (GST-Bcl-2) | effect of doxycycline-induced Bcl-B expression on compound-induced cell death [1] | effect of doxycycline on compound-induced cell death in control cells (HeLa Tet-On (HTO1) cells)
CC(C)C[C@H](NC(=O)[C@H](CC(C)C)NC(=O)[C@H](CO)NC(=O)[C@H](Cc1c[nH]cn1)NC(=O)[C@H](CC(C)C)NC(=O)[C@H](CO)NC(=O)[C@H](CCCNC(=N)N)NC(=O)[C@H](CO)NC(=O)[C@H](Cc1ccccc1)NC(=O)CCCCCNC(=S)Nc1ccc2c(c1)C(=O)OC21c2ccc(O)cc2Oc2cc(O)ccc21)C(=O)NCC(=O)NCCCCCC(=O)N[C@H](CCCNC(=N)N)C(=O)N[C@H](CCCNC(=N)N)C(=O)N[C@H](CCCNC(=N)N)C(=O)N[C@H](CCCNC(=N)N)C(=O)N[C@H](CCCNC(=N)N)C(=O)N[C@H](CCCNC(=N)N)C(=O)N[C@H](CCCNC(=N)N)C(=O)N[C@H](CCCNC(=N)N)C(N)=O [FITC-TR3-9-r8] | Binding to GST-Bfl-1 | but not GST-Bcl-XL | but not GST-Bcl-W | Binding to GST-Bcl-2 and GST-Bcl-B | Binding to GST-Bcl-2 |  | 
CN[C@@H]1C[C@H]2O[C@@](C)([C@@H]1OC)n1c3ccccc3c3c4c(c5c6ccccc6n2c5c31)C(=O)NC4 [staurosporine] |  |  |  |  |  | more resistant to staurosporine-induced cell death | the same level of staurosporine-induced cell death whether or not doxycycline was added
